The assay relates to pre-melanoma. Description: Photodynamic therapy of pre-melanoma around the excision site after surgical melanoma removal (patient case examples). The class given is in vivo, human.

The values that follow come from patent US6723750B2, “Photodynamic therapy for pre-melanomas” (Allergan, Inc., priority 2002, dated 2004).

Molecules are shown by their SMILES.

Procedure: The melanoma is surgically removed and the patient is treated for pre-melanoma using photodynamic therapy. The area around the point of excision of the melanoma is contacted with a composition which includes aminolevulinic acid methyl ester at about a 10% (w/w) and a penetrating agent, DMSO, at a concentration of about 10% (w/w). The composition is applied directly to and around the site of excision of the melanoma covering an area of approximately 100 cm^2. The application is repeated once an hour for an 8 hour period. The area is then exposed to light in the wavelength range of about 500 to about 700 nm for approximately 10 hours.
The melanoma is surgically removed and the patient is treated for pre-melanoma using photodynamic therapy. The area around the point of excision of the melanoma is contacted with an ointment which includes amino levulinic acid methyl ester at about 5% (w/w) and a penetrating agent, DMSO, at a concentration of about 15% (w/w). The ointment is applied directly to and around the site of excision of the melanoma. The site of application is covered with a semi-permeable membrane for 24 hours after which the application is repeated and again covered for a 24 hour period. The area is then exposed to light in the wavelength range of about 610 nm to about 670 nm for approximately 2 hours once a day for four straight days. […]

With `COC(=O)CCC(=O)CN` [aminolevulinic acid methyl ester], where the note is “Example 3: thigh, superficial spreading melanoma removed, about 10% (w/w) with DMSO about 10% (w/w), topical, once an hour for 8 hours, light about 500 to about 700 nm approx. 10 hours, at one year after treatment”, the “cancer status of patient after treatment” value is listed as “no sign of cancer”. Further, where the note is “Example 6: foot, acral lentiginous melanoma removed, ointment about 5% (w/w) with DMSO about 15% (w/w), two 24 hour applications, light about 610 nm to about 670 nm approx. 2 hours once a day for four days, two years after surgery”, the “cancer status of patient after surgery and treatment” value is recorded as “no sign of the cancer”.
